The text below walks through data of patent publication US8598190B2, “3H-imidazo [4, 5-C] pyridine-6-carboxamides as anti-inflammatory agents” (Boehringer Ingelheim International GmbH, priority 2008, dated 2013).

By inhibition is commonly meant how much of the control response was suppressed.

The experiment addresses T1, recombinant human mPGES-1 (Homo sapiens, UniProt O14684).
T1 construct: made in house; host or cells: Rosetta E. coli (microsomal/membrane fraction)
T1 sequence (O14684 1-152): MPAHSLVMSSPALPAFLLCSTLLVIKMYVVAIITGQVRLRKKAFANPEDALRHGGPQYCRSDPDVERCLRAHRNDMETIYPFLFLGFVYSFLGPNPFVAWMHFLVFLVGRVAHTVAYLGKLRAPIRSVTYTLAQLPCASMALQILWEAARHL
Put plainly: mPGES-1 inhibition test (microsomes, HTRF detection of PGE2). It is filed as biochemical. How it is done:
Microsomes from Rosetta E. coli bacteria expressing recombinant human mPGES-1 is dissolved in 0.1 M KPi pH 7.4 buffer containing 2.5 mM GSH. 50 μl of the enzyme is subsequently dispensed in a 384-well plate. 0.5 μl of the inhibitor dissolved in DMSO at is thereafter added to each well and incubated for 25 minutes at room temperature.
Subsequently, 2 μl of PGH2 dissolved in an appropriate solvent is added to each well and after one minute the acidified stop solution containing FeCl2 is added. 4 μl of the total volume is transferred to a separate plate and diluted 750-fold in two separate steps before HTRF detection of PGE2.
The HTRf detection is performed by the use of a commercially available kit from CisBio essentially according to the manufacturer's protocol. Briefly, 10 μl of the diluted sample is transferred to a white 384-well plate. 5 μl of d2 and 5 μl Eu3+-Cryptate labeled anti-PGE2 is added to each well containing samples by the use of a Multidrop. The plate is covered with a plastic self-adhesive film, centrifuged at 1200 rpm for 1 minute and subsequently stored at +4° C. over night.
After over night incubation the fluorescence is measured by the use of an appropriate microplate reader. The fluorescence of europium cryptate, and d2 are measured using the following excitation and emission wavelength, europium cryptate: λmax^ex=307 nm, λmax^em=620 nm and d2: λmax^ex=620 nm, λmax^em=665 nm), respectively. The extent of the specific FRET is measured as a ratio of the emission intensity at 665 nm vs. that at 620 nm. A standard curve using synthetic PGE2 is used to quantify the amount of PGE2 in unknown samples.
In general terms: In TR-FRET formats the signal depends on donor and acceptor labels being close together.
Take `O=C(Nc1cc(C(F)(F)F)ccn1)c1cc2[nH]c(Nc3c(F)cccc3Cl)nc2cn1` [Example 729, 2-(2-Chloro-6-fluoro-phenylamino)-N-(4-trifluoromethyl-pyridin-2-yl)-1H-imidazo[4,5-c]pyridine-6-carboxamide]: the inhibition at 10 µM was found to be 100%. For the compound `O=C(NCc1ccccc1C(F)(F)F)c1cc2[nH]c(Nc3c(Cl)cccc3Cl)nc2cn1` [Example 477, 2-(2,6-Dichlorophenylamino)-N-(2-trifluoromethyl-benzyl)-1H-imidazo[4,5-c]pyridine-6-carboxamide], the inhibition at 10 µM is 97%. Turning to `Cn1c(Nc2c(F)cccc2Cl)nc2cc(C(=O)Nc3ccc(Br)cc3)ncc21` [Example 361, N-(4-Bromophenyl)-2-(2-chloro-6-fluoro-phenylamino)-3-methyl-3H-imidazo[4,5-c]pyridine-6-carboxamide], the inhibition at 10 µM is 100%. Consider `O=C(Nc1cc(C(F)(F)F)cc(Cl)n1)c1cc2[nH]c(Nc3c(Cl)cncc3Cl)nc2cn1` [Example 736, 2-(3,5-Dichloro-pyridin-4-yl-amino)-N-(6-chloro-4-trifluoromethyl-pyridin-2-yl)-1H-imidazo[4,5-c]pyridine-6-carboxamide], for which the inhibition at 10 µM worked out at 98%. Regarding `Cn1c(Nc2c(Cl)cccc2Cl)nc2cc(C(=O)NC3CCC(C)(C)CC3)ncc21` [Example 406, 2-(2,6-Dichlorophenylamino)-N-(4,4-dimethylcyclohexyl)-3-methyl-3H-imidazo[4,5-c]pyridine-6-carboxamide], the inhibition at 10 µM amounted to 100%.

Turning to `Cn1c(Nc2c(Cl)cncc2Cl)nc2cc(C(=O)Nc3cc(C(F)(F)F)ccn3)ncc21` [Example 482, 2-(3,5-Dichloropyridin-4-ylamino)-3-methy-N-(4-trifluoromethyl-pyridin-2-yl)-3H-imidazo[4,5-c]pyridine-6-carboxamide], the inhibition at 10 µM came to 98%.

In the case of `Cn1c(Nc2c(Cl)cccc2Cl)nc2cc(C(=O)NC3CCC4(CC3)CC4)ncc21` [Example 425, 2-(2,6-Dichlorophenylamino)-3-methyl-N-(spiro[2.5]octan-6-yl)-3H-imidazo[4,5-c]-pyridine-6-carboxamide], the inhibition at 10 µM was 100%. In the case of `Cn1c(Nc2c(Cl)cncc2Cl)nc2cc(C(=O)NCc3ncccc3C(F)(F)F)ncc21` [Example 550, 2-(3,5-Dichloropyridin-4-ylamino)-3-methyl-N-((3-trifluoromethyl-pyridin-2-yl)-methyl)-3H-imidazo[4,5-c]pyridine-6-carboxamide], the inhibition at 10 µM is 95%. For `O=C(Nc1cc(C(F)(F)F)ccn1)c1cc2[nH]c(Nc3c(Cl)cncc3Cl)nc2cn1` [Example 366, 2-(3,5-Dichloropyridin-4-ylamino)-N-(4-trifluoromethyl-pyridin-2-yl)-1H-imidazo[4,5-c]pyridine-6-carboxamide], the inhibition at 10 µM was determined as 100%. Turning to `Cn1c(Nc2c(Cl)cccc2Cl)nc2cc(C(=O)Nc3cc(C4CC4)ccn3)ncc21` [Example 462, N-(4-Cyclopropylpyridin-2-yl)-2-(2,6-dichlorophenylamino)-3-methyl-3H-imidazo[4,5-c]pyridine-6-carboxamide], the inhibition at 10 µM came to 94%.

As for `Cn1c(Nc2c(Cl)cccc2Cl)nc2cc(C(=O)NC3CCCCC3)ncc21` [Example 487, N-Cyclohexyl-2-(2,6-dichlorophenylamino)-3-methyl-3H-imidazo[4,5-c]pyridine-6-carboxamide], the inhibition at 10 µM stood at 100%.

In the case of `Cn1c(Nc2c(F)cccc2Cl)nc2cc(C(=O)Nc3cc(C(F)(F)F)ccn3)ncc21` [Example 360, 2-(2-Chloro-6-fluoro-phenylamino)-3-methyl-N-(4-trifluoromethyl-pyridin-2-yl)-3-H-imidazo[4,5-c]pyridine-6-carboxamide], the inhibition at 10 µM came to 100%. As for `Cc1cnc(NC(=O)c2cc3nc(Nc4c(Cl)cccc4Cl)n(C)c3cn2)cc1C` [Example 724, 2-(2,6-Dichlorophenylamino)-3-methyl-N-(4,5-dimethyl-pyridin-2-yl)-3H-imidazo[4,5-c]pyridine-6-carboxamide], the figure is 100%.
